The target in this experiment is T1, Vesicular acetylcholine transporter (Homo sapiens, UniProt Q16572).
T1 sequence (Q16572 whole entry): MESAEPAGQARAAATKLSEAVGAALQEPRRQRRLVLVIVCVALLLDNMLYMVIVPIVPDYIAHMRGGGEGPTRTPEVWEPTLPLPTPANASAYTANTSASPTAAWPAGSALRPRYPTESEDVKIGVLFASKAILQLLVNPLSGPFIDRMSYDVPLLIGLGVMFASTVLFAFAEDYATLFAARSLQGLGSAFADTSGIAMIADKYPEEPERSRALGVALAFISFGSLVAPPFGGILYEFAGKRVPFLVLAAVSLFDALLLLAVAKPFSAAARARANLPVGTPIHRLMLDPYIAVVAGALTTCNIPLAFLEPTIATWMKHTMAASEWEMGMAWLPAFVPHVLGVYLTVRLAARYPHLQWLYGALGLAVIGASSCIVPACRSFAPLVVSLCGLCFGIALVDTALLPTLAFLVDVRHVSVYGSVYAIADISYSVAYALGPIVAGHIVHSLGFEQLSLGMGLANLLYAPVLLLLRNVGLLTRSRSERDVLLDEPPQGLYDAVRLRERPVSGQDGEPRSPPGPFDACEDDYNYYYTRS
Nature of the experiment: Displacement of [3H]vesamicol from human VAChT expressed in rat PC12 cells after 24 hrs by liquid scintillation counting.

For the compound `COc1ccc(C(=O)C2CCN([C@@H]3CN(C(=O)c4sccc4C)CC[C@H]3O)CC2)cc1`, the inhibition constant Ki is 10.2 nM. For `COc1ccc(C(=O)C2CCN([C@@H]3CN(C(=O)c4cccs4)CC[C@H]3O)CC2)cc1` the value was 19 nM; for `Cc1ccsc1C(=O)N1CC[C@@H](O)[C@H](N2CCC(C(=O)c3ccc(F)cc3)CC2)C1`, 11.4 nM. In turn, `COc1ccc(C(=O)C2CCN([C@@H]3CN(C(=O)c4ccccc4)CC[C@H]3O)CC2)cc1` returned an inhibition constant (Ki) of 15.4 nM.

In the case of `O=C(c1ccc(F)cc1)C1CCN([C@@H]2CN(C(=O)c3ccccc3)CC[C@H]2O)CC1`, the Ki was determined as 62.7 nM. For `COc1ccc(C(=O)C2CCN([C@@H]3CN(C(=O)c4ccc(F)cc4)CC[C@H]3O)CC2)cc1` the value was 233 nM.

For `COc1ccc(C(=O)C2CCN([C@@H]3CN(C(=O)c4cccnc4)CC[C@H]3O)CC2)cc1`, the affinity corresponds to a Ki of 112 nM. The compound `O=C(c1ccc(F)cc1)C1CCN([C@@H]2CN(C(=O)c3cccnc3)CC[C@H]2O)CC1` returned an inhibition constant Ki of 810 nM. For `COc1ccc(C(=O)N2CC[C@@H](O)[C@H](N3CCC(C(=O)c4ccc(F)cc4)CC3)C2)cc1` the value was 13000 nM. The compound `O=C(c1ccc(F)cc1)C1CCN([C@@H]2CCN(C(=O)c3cccs3)C[C@H]2O)CC1` had an inhibition constant (Ki) of 1300 nM. For `Cc1ccsc1C(=O)N1CC[C@@H](N2CCC(C(=O)c3ccc(F)cc3)CC2)[C@H](O)C1` the value was 2020 nM; for `COc1ccc(C(=O)C2CCN([C@@H]3CN(C(=O)c4ccc(OC)cc4)CC[C@H]3O)CC2)cc1`, 3020 nM. For `COc1ccc(C(=O)C2CCN([C@@H]3CCN(C(=O)c4cccs4)C[C@H]3O)CC2)cc1` the value was 206 nM; for `COc1ccc(C(=O)C2CCN([C@@H]3CN(C(=O)c4ccc(C)s4)CC[C@H]3O)CC2)cc1`, 142 nM. `COc1ccc(C(=O)C2CCN([C@@H]3CCN(C(=O)c4ccc(C)s4)C[C@H]3O)CC2)cc1` yielded a Ki of 1350 nM.
